# Reference: PubChem BioAssay AID2305 (GlaxoSmithKline (GSK), 2010)
# Several values for one entry are separate records, joined by “and”; a condition that tells them apart may be missing. Identical values can stand only once.
# Tested on: P. falciparum 3D7 growth, pLDH absorbance
# Experiment: blood-stage malaria parasite growth potency – strain 3D7, dose response (AID 2305)
row,Structure (SMILES),IC50
1,O=S(=O)(c1cccc(F)c1)c1ccc(Nc2ncnc3cc(Br)sc23)cc1Cl,1030 nM
2,Cc1cccc(Nc2nc3nonc3nc2Nc2cccc(Cl)c2Cl)c1C,1030 nM
3,COc1ccc(N2CCN(CCCCNC(=O)c3ccc(NC(=O)c4ccc(OC(F)(F)F)cc4)cc3)CC2)c(OC)c1,580 nM
4,CC(C)Oc1ccc2ccccc2c1CNCCCCCCNCc1c(OC(C)C)ccc2ccccc12,610 nM
5,COc1ccc(N2CCN(CCCCNCc3ccc(NC(=O)c4cc(Cl)cc(Cl)c4)cc3)CC2)c(OC)c1,250 nM
6,COc1cc(N)cc2sc(N)nc12,250 nM
7,O=C(CSc1nc2ccccc2c(=O)n1C1CC1)Nc1cc(C(F)(F)F)ccc1Cl,110 nM
8,CC(=O)N(Cc1cccc(-c2cccc(CNCc3ccc4c(c3)OCO4)c2)c1)C1CCN(Cc2ccccc2)CC1,840 nM
9,COc1ccc2nc(C)cc(Nc3ccc(Oc4ccc5ccccc5c4Cl)c(Cl)c3)c2c1,500 nM
10,COc1c(CN2CCCC2)cccc1-c1cc2c(-c3ccc(C(=O)O)c(C(C)C)c3)ccnc2[nH]1,440 nM
11,COc1ccc(NC(=O)CCNc2ccnc(NCCc3ccc(F)cc3)n2)cc1,990 nM
12,COc1ccc2nc3cc(Cl)ccc3c(NCCCCN)c2c1,730 nM
13,Oc1cc(Nc2ccnc3cc(-c4ccc(CN5CCCCC5)o4)c(Cl)cc23)c(Cl)cc1F,1260 nM
14,O=C(CCNc1ccnc(NCCc2ccccc2)n1)Nc1ccccc1,840 nM
15,Cc1ccc(-c2noc(COc3ccccc3C(=O)NC3CCCC3)n2)cc1,880 nM
16,CC(C)(C)c1nn(-c2ccccc2)c2[nH]c(=O)c(CNC3CCCC3)cc12,850 nM
17,O=C(O)c1cccc2c(-c3ccncc3)cccc12,940 nM
18,COc1ccc2nccc([C@@H](O)CN3CCC(NCc4cc5ccccc5cn4)CC3)c2n1,920 nM
19,CC(C)c1cn2c3c(cc(C(=O)N[C@@H](Cc4ccccc4)[C@H](O)CNC4CCCCC4)cc13)N(C)S(=O)(=O)CC2,30 nM
20,CN1CCc2ccc(NC(=O)Nc3cccc([N+](=O)[O-])c3)cc2C1,1100 nM
21,O=C(Nc1ccccc1OC(F)(F)F)NC1CCC(CN2CCC(c3c[nH]c4ccccc34)CC2)CC1 (stereo not drawn),370 nM and 800 nM
22,CCNc1cc(C(=O)N[C@@H](Cc2ccccc2)[C@H](O)CNC2CCC(F)(F)CC2)c(F)c(N2CCCCS2(=O)=O)c1,210 nM
23,COc1cccc(C(=O)N2CCN(Cc3cccc(NC(=O)c4cccs4)c3)CC2)c1,480 nM
24,NC(=NC1CC1)c1ccc2nc(CCCCCc3nc4ccc(C(N)=NC5CC5)cc4[nH]3)[nH]c2c1,930 nM

row,Structure (SMILES),IC50
1,CC(=O)Nc1sc(C)c(C)c1CN1CCc2ccccc2C1,620 nM
2,CCCC(C)Nc1nc(C)cc(N[C@@H](CC(C)C)C(=O)NCCOc2ccccc2)n1 (stereo partly drawn),1710 nM
3,CC(C)CCN1CCCN(Cc2cccc(NC(=O)c3ccc(Cl)c(Cl)c3)c2)CC1,1020 nM
4,COc1ccc2nccc([C@@H](O)CN3CCC(NC(=O)c4ccc(Cl)c(Cl)c4)CC3)c2c1,610 nM
5,CC(C)(C)c1ccc2nc(-c3ccc(/C=C/C(=O)NC4CCN(Cc5ccccc5)CC4)cc3)[nH]c2c1,590 nM
6,Cc1ccc(CCC(C)NCC(O)c2cccc(Cl)c2)cc1 (stereo not drawn),800 nM
7,COc1ccc(CN(C)CCOc2ccc(NC(=O)c3cccc4c(=O)cc(-c5ccccc5)[nH]c34)cc2)cc1OC,920 nM
8,CCOC(=O)c1ccc(NC(=O)Nc2ccc(-c3ccc(-c4nc5c(C)cccc5[nH]4)s3)cc2)cc1,200 nM
9,Cc1ccccc1C1CCN(C2CCC(NC(=O)c3ccc(-c4cccc(C(F)(F)F)c4)o3)CC2)CC1 (stereo not drawn),350 nM
10,NCCNc1ccnc2cc(Cl)ccc12,130 nM
11,CCNc1cc(C(=O)N[C@@H](Cc2ccccc2)[C@H](O)CNCCc2cc(OC)cc(OC)c2)cc(N2CCCCS2(=O)=O)c1,1140 nM
12,CCNc1cc(C(=O)N[C@@H](Cc2ccccc2)[C@H](O)CNCCc2cccc(C(F)(F)F)c2)cc(N2CCCC2=O)c1,880 nM
13,Cc1cc(S(=O)(=O)N2CCCCC(c3ccc(C(F)(F)F)cc3)=N2)c(Cl)cc1Cl,500 nM
14,CN(Cc1cccc(F)c1)C1CCN(c2cc(NC(=O)c3ccc(F)cc3)ccn2)C1 (stereo not drawn),1230 nM
15,CN1CCCC(CN2CCN(Cc3cccc(-c4ccc(-c5nc6ccc(C(F)(F)F)cc6[nH]5)cc4)c3)CC2)C1 (stereo not drawn),150 nM
16,O=c1cc(NCCCNCc2cn(S(=O)(=O)c3ccccc3)c3ccccc23)[nH]c2ccccc12,880 nM
17,O=C(/C=C/c1cccc(C(F)(F)F)c1)NCCCCCN1CCN(C(=O)Nc2ccc(Cl)c(Cl)c2)CC1,930 nM
18,Cc1cc(C=C(P(=O)(OC(C)C)OC(C)C)P(=O)(OC(C)C)OC(C)C)c2ccccc2c1O,1080 nM
19,CC(=O)Nc1ccc(CN2CCC(N(C)c3cc(NC(=O)c4ccc(F)cc4)ccn3)CC2)cc1,1120 nM
20,Cc1cc2c(cc1C(F)(F)F)N(C(=O)Nc1cc(C(=O)NC3CCN(Cc4ccccc4)C3)cc(C(F)(F)F)c1)CC2 (stereo not drawn),340 nM
21,CC(C)c1ccc(NC(=O)Nc2ccc(CCNCCCc3ccccc3)cc2)cc1,760 nM
22,Nc1ncc(-c2cccc(CCN3CCOCC3)c2)cc1-c1nc2ccc(Br)cc2[nH]1,280 nM
23,CCCCCC(C)NC[C@@H](O)[C@H](Cc1ccccc1)NC(=O)c1cc(NCC)cc(N2CCCCS2(=O)=O)c1 (stereo partly drawn),400 nM
24,O=C(Nc1cccc(Cl)c1)N(CCCn1ccnc1)Cc1csc(-c2ccc(CNCc3ccccc3)cc2)n1,540 nM
